# Read-outs that look alike come from different tables or passages of the source.
# Molecular target: T1, unphosphorylated ABL1(T315I)(229-499) (Homo sapiens, UniProt P00519, T315I)
# T1 construct: The recombinant ABL1(T315I) (isoform 1a) residues 229-499 protein was designed with an N-terminal 10×His tag; made in house; host or cells: E. coli (co-expressed with YopH phosphatase and pGro7 chaperone)
# T1 sequence (P00519 229-499 T315I): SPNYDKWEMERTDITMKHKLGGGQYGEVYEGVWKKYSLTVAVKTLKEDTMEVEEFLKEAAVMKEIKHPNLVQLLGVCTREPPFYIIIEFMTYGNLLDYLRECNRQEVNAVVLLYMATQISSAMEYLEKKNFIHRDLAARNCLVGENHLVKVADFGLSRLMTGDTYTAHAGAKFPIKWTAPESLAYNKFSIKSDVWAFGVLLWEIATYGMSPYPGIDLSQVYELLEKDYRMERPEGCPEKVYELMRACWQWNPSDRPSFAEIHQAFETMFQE
# Assay: SPR binding to unphosphorylated ABL1(T315I)(229-499)
# Details: Ni-NTA capture of 10xHis-tag
smiles,measurement,setting,value
"Nc1nc(N)c(N=O)c(OCC2CCCCC2)n1 [A-0001, 6-Cyclohexylmethyloxy-5-nitroso-pyrimidine-2,4-diamine]",Kd,"HBST buffer, read-out: Unphosphorylated ABL1(T315I)(229-499) in HBST buffer KD",2 µM
same,Kd,"PBST buffer, read-out: Unphosphorylated ABL1(T315I)(229-499) in PBST buffer KD",5 µM

# Source: US20240165113A1, “METHODS OF TREATMENT FOR LEUKEMIA” (DNA SEQ 2, Inc., priority 2021, published 2024)
